Experimental data from US20070128217A1 (priority 2003, published 2007).

How the values were obtained:
[1] = test system: rabbit serum obtained by immunizing a rabbit with the SARS-CoV strain Frankfurt 1; assay type: binding; parameters: Binding of a rabbit serum to linear peptides / Binding of a rabbit serum to looped peptides / Rabbit serum linear peptides / Rabbit serum looped peptides / Binding of a rabbit serum to linear peptides of protein N of SARS-CoV Urbani (Rabbit serum linear peptides) / Binding of a rabbit serum to looped/cyclic peptides of protein N of SARS-CoV Urbani (Rabbit serum looped peptides): unit not given here
[2] = test system: control sera (pooled serum of ten healthy LUMC hospital workers; commercial negative donor pooled serum from the Dutch bloodbank); assay type: binding, human; parameters: Binding of Control serum LUMC to linear peptides / Binding of Control serum Blood-bank to linear peptides / Binding of Control serum LUMC to looped peptides / Binding of Control Serum Blood-Bank to Looped peptides / Binding of Control serum LUMC to linear peptides of the protein M of SARS-CoV Urbani / Binding of Control serum Blood-bank to linear peptides of the protein M of SARS-CoV Urbani / Binding of Control serum LUMC to looped peptides of the protein M of SARS-CoV Urbani / Binding of Control Serum Blood-Bank to Looped peptides of the protein M of SARS-CoV Urbani: unit not given here
[3] = test system: antibodies in sera from SARS patients (sera 1a, 1b, 2, 6, 37, 62, London, SARS-yellow, SARS-green); assay type: binding, human; parameters: Binding of serum 6 to linear peptides of protein X1 of SARS-CoV Urbani / Binding of serum 37 to linear peptides of protein X1 of SARS-CoV Urbani / Binding of serum 6 to looped/cyclic peptide (PEPSCAN-ELISA) / Binding of serum 37 to looped/cyclic peptide (PEPSCAN-ELISA) / Binding of serum 37 to looped/cyclic peptides of protein X1 of SARS-CoV Urbani / Binding of serum 6 to linear peptides of protein X2 / Binding of serum 37 to linear peptides of protein X2 / Binding of serum 37 to looped/cyclic peptides of protein X2 of SARS-CoV Urbani / Binding of serum 6 to linear peptides of protein M of SARS-CoV Urbani / Binding of serum 37 to linear peptides of protein M of SARS-CoV Urbani / Binding of serum 6 to looped/cyclic peptides of protein M of SARS-CoV Urbani / Binding of serum 37 to looped/cyclic peptides of protein M of SARS-CoV Urbani / Binding of serum 6 to linear peptides of protein X3 of SARS-CoV Urbani / Binding of serum 37 to linear peptides of protein X3 of SARS-CoV Urbani / Binding of serum 37 to looped/cyclic peptides of protein X3 of SARS-CoV Urbani / Binding of serum 6 to linear peptides of protein X4 of SARS-CoV Urbani / Binding of serum 37 to linear peptides of protein X4 of SARS-CoV Urbani / Binding of serum 37 to looped/cyclic peptides of protein X4 of SARS-CoV Urbani / Binding of serum 6 to linear peptides of protein X5 of SARS-CoV Urbani / Binding of serum 37 to linear peptides of protein X5 of SARS-CoV Urbani / Binding of serum 37 to looped/cyclic peptides of protein X5 of SARS-CoV Urbani / Binding of serum 6 to linear peptides of protein N of SARS-CoV Urbani / Binding of serum 37 to linear peptides of protein N of SARS-CoV Urbani / Binding of serum 6 to linear peptide (PEPSCAN-ELISA) / Binding of serum 1a to looped/cyclic peptides of protein N of SARS-CoV Urbani / Binding of serum 1b to looped/cyclic peptides of protein N of SARS-CoV Urbani / Binding of serum 2 to looped/cyclic peptides of protein N of SARS-CoV Urbani / Binding of serum 6 to looped/cyclic peptides of protein N of SARS-CoV Urbani / Binding of serum 37 to looped/cyclic peptides of protein N of SARS-CoV Urbani / Binding of serum 62 to looped/cyclic peptides of protein N of SARS-CoV Urbani / Binding of serum London to looped/cyclic peptides of protein N of SARS-CoV Urbani / Binding of serum SARS-green to looped/cyclic peptides of protein N of SARS-CoV Urbani: unit not given here
[4] = test system: recombinant human anti-SARS-CoV antibody 03-018; assay type: binding; parameters: Binding of antibody 03-018 to linear peptides of the N protein of SARS-CoV Urbani / Binding of antibody 03-018 to looped/cyclic peptides of the N protein of SARS-CoV Urbani: unit not given here

Sequence	Binding of a rabbit serum to linear peptides of protein N of SARS-CoV Urbani (Rabbit serum linear peptides) [1]	Binding of a rabbit serum to looped/cyclic peptides of protein N of SARS-CoV Urbani (Rabbit serum looped peptides) [1]	Binding of serum 1a to linear peptides of protein N of SARS-CoV Urbani [3]	Binding of serum 1a to looped/cyclic peptides of protein N of SARS-CoV Urbani [3]	Binding of serum 1b to linear peptides of protein N of SARS-CoV Urbani [3]	Binding of serum 1b to looped/cyclic peptides of protein N of SARS-CoV Urbani [3]	Binding of serum 2 to linear peptides of protein N of SARS-CoV Urbani [3]	Binding of serum 2 to looped/cyclic peptides of protein N of SARS-CoV Urbani [3]	Binding of serum 6 to linear peptides of protein N of SARS-CoV Urbani [3]	Binding of serum 6 to looped/cyclic peptides of protein N of SARS-CoV Urbani [3]	Binding of serum 37 to linear peptides of protein N of SARS-CoV Urbani [3]	Binding of serum 37 to looped/cyclic peptides of protein N of SARS-CoV Urbani [3]	Binding of serum 62 to linear peptides of protein N of SARS-CoV Urbani [3]	Binding of serum 62 to looped/cyclic peptides of protein N of SARS-CoV Urbani [3]	Binding of serum London to linear peptides of protein N of SARS-CoV Urbani [3]	Binding of serum London to looped/cyclic peptides of protein N of SARS-CoV Urbani [3]	Binding of serum SARS-green to linear peptides of protein N of SARS-CoV Urbani [3]	Binding of serum SARS-green to looped/cyclic peptides of protein N of SARS-CoV Urbani [3]	Binding of serum SARS-yellow to linear peptides of protein N of SARS-CoV Urbani [3]	Binding of serum SARS-yellow to looped/cyclic peptides of protein N of SARS-CoV Urbani [3]	also measured
ILLNKHIDAYKTFPP	0.2	0.6	0.2	0.4	0.1	0.3	0.2	0.5	0.2	0.3	0.7	0.7	0.7	0.7	0.5	0.5	0.3	0.5	0.5	0.7	Control Serum Blood-Bank Looped peptides [2]: 0.6; Control serum Blood-bank linear peptides [2]: 0.7; Control serum LUMC linear peptides [2]: 0.7; Control serum LUMC looped peptides [2]: 0.7; Binding of antibody 03-018 to linear peptides of the N protein of SARS-CoV Urbani [4]: 0.1; Binding of antibody 03-018 to looped/cyclic peptides of the N protein of SARS-CoV Urbani [4]: 0.2
INTNSGPDDQIGYYR	0.2	0.5	0.3	0.4	0.2	0.3	0.2	0.4	0.2	0.2	0.9	0.7	0.7	0.5	0.4	0.4	0.2	0.5	0.7	0.5	Binding of Control Serum Blood-Bank to Looped peptides [2]: 0.6; Binding of Control serum Blood-bank to linear peptides [2]: 0.8; Binding of Control serum LUMC to linear peptides [2]: 0.7; Binding of Control serum LUMC to looped peptides [2]: 0.7; Binding of antibody 03-018 to linear peptides of the N protein of SARS-CoV Urbani [4]: 0.1; Binding of antibody 03-018 to looped/cyclic peptides of the N protein of SARS-CoV Urbani [4]: 0.2
IRQGTDYKHWPQIAQ	0.1	0.3	0.2	0.4	0.1	0.2	0.2	0.4	0.2	0.2	0.7	0.6	0.6	0.6	0.9	0.4	0.3	0.3	0.6	0.4	Binding of Control Serum Blood-Bank to Looped peptides [2]: 0.5; Binding of Control serum Blood-bank to linear peptides [2]: 0.7; Binding of Control serum LUMC to linear peptides [2]: 0.7; Binding of Control serum LUMC to looped peptides [2]: 0.6; Binding of antibody 03-018 to linear peptides of the N protein of SARS-CoV Urbani [4]: 0.1; Binding of antibody 03-018 to looped/cyclic peptides of the N protein of SARS-CoV Urbani [4]: 0.2
